The assay deals with human 11βHSD1 enzyme (Homo sapiens (Human), UniProt P28845). The experiment in a line: biochemical. The note with it: read-out: % inhibition of human 11-βHSD.
human 11βHSD1 enzyme, sequence (P28845 whole entry): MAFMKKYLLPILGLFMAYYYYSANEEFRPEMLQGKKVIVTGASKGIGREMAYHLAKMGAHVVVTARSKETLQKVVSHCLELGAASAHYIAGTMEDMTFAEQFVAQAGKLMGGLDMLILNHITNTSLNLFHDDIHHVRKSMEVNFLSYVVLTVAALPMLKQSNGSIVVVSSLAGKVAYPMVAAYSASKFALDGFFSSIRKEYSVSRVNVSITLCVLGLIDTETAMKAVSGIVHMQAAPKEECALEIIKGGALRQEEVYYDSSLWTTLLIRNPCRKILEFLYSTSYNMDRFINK

Regarding `CCCSc1nc(N2CCCC(C)(C(=O)O)C2)ccc1C(=O)NC1CCCCC1` (stereo not drawn) [Example 47, 1-[5-(cyclohexylcarbamoyl)-6-propylsulfanyl-pyridin-2-yl]-3-methyl-piperidine-3-carboxylic acid], the inhibition at 30 µM stood at 90%.

`CCCSc1nc(N2CCC(C(C)(C)C(=O)O)CC2)ccc1C(=O)NC1CCCCC1` [Example 48, 2-[1-[5-(cyclohexylcarbamoyl)-6-propylsulfanyl-pyridin-2-yl]-4-piperidyl]-2-methyl-propanoic acid]: the inhibition at 30 µM was 75%.

Turning to `CCCSc1nc(N2CCC(C3(C(=O)O)CCC3)CC2)ccc1C(=O)NC1CCCCC1` [Example 49, 1-[1-[5-(cyclohexylcarbamoyl)-6-propylsulfanyl-pyridin-2-yl]-4-piperidyl]cyclobutane-1-carboxylic acid], the inhibition at 30 µM was 77%.

Take `CCCSc1nc(N2CCC(C3(C(=O)O)CC3)CC2)ccc1C(=O)NC1CCCCC1` [Example 50, 1-[1-[5-(cyclohexylcarbamoyl)-6-propylsulfanyl-pyridin-2-yl]-4-piperidyl]cyclopropane-1-carboxylic acid]: the inhibition at 30 µM was determined as 81%.

For the compound `CCCSc1nc(N2CCOC(C(=O)O)C2)ccc1C(=O)NC1CCCCC1` (stereo not drawn) [Example 51, 4-[5-(cyclohexylcarbamoyl)-6-propylsulfanyl-pyridin-2-yl]morpholine-2-carboxylic acid], the inhibition at 30 µM stood at 90%.

Take `O=C(O)C[C@@H]1CCCN(c2ccc(C(=O)NC3CCCCC3)c(SC3CCCC3)n2)C1` [Example 52, 2-[(3S)-1-[5-(cyclohexylcarbamoyl)-6-cyclopentylsulfanyl-pyridin-2-yl]-3-piperidyl]acetic acid]: the inhibition at 30 µM came out at 92%.

As for `O=C(O)C[C@H]1CCCN(c2ccc(C(=O)NC3CCCCC3)c(SC3CCCC3)n2)C1` [Example 55, 2-[(3R)-1-[5-(cyclohexylcarbamoyl)-6-cyclopentylsulfanyl-pyridin-2-yl]-3-piperidyl]acetic acid], the inhibition at 30 µM is 89%.

As for `O=C(NC1CCCCC1)c1ccc(N2CCCC(C3(C(=O)O)CC3)C2)nc1SC1CCCC1` (stereo not drawn) [Example 56, 1-[1-[5-(cyclohexylcarbamoyl)-6-cyclopentylsulfanyl-pyridin-2-yl]-3-piperidyl]cyclopropane-1-carboxylic acid], the inhibition at 30 µM was determined as 97%.

As for `O=C(O)C[C@H]1CCN(c2ccc(C(=O)NC3CCCCC3)c(SC3CCCCC3)n2)C1` [Example 57, 2-[(3R)-1-[5-(cyclohexylcarbamoyl)-6-cyclohexylsulfanyl-pyridin-2-yl]pyrrolidin-3-yl]acetic acid], the inhibition at 30 µM stood at 97%.

As to `O=C(O)C[C@H]1CCCN(c2ccc(C(=O)NC3CCCCC3)c(SC3CCCCC3)n2)C1` [Example 58, 2-[(3R)-1-[5-(cyclohexylcarbamoyl)-6-cyclohexylsulfanyl-pyridin-2-yl]-3-piperidyl]acetic acid], the inhibition at 30 µM is 83%.

With `CCCSc1nc(N2CCC[C@@H](CC(=O)O)C2)ccc1C(=O)NC1C2CC3CC(C2)CC1C3` (stereo partly drawn) [Example 59, 2-[(3S)-1-[5-(2-adamantylcarbamoyl)-6-propylsulfanyl-pyridin-2-yl]-3-piperidyl]acetic acid], the inhibition at 30 µM is 94%.

For `CCCSc1nc(N2CC[C@@H](CC(=O)O)C2)ccc1C(=O)NC1C2CC3CC(C2)CC1C3` (stereo partly drawn) [Example 62, 2-[(3S)-1-[5-(2-adamantylcarbamoyl)-6-propylsulfanyl-pyridin-2-yl]pyrrolidin-3-yl]acetic acid], the inhibition at 30 µM came to 89%.

Turning to `CCCSc1nc(N2CC[C@@H](C(=O)O)C2)ccc1C(=O)NC1C2CC3CC(C2)CC1C3` (stereo partly drawn) [Example 63, (3R)-1-[5-(2-adamantylcarbamoyl)-6-propylsulfanyl-pyridin-2-yl]pyrrolidine-3-carboxylic acid], the inhibition at 30 µM came to 91%.

Regarding `CCCSc1nc(N2CC[C@H](CC(=O)O)C2)ccc1C(=O)NC1C2CC3CC(C2)CC1C3` (stereo partly drawn) [Example 64, 2-[(3R)-1-[5-(2-adamantylcarbamoyl)-6-propylsulfanyl-pyridin-2-yl]pyrrolidin-3-yl]acetic acid], the inhibition at 30 µM was 89%.

Regarding `CCCSc1nc(N2CCC[C@H]2C(=O)O)ccc1C(=O)NC1C2CC3CC(C2)CC1C3` (stereo partly drawn) [Example 65, (2S)-1-[5-(2-adamantylcarbamoyl)-6-propylsulfanyl-pyridin-2-yl]pyrrolidine-2-carboxylic acid], the inhibition at 30 µM worked out at 89%.

As to `CCCSc1nc(N2C[C@@H]3[C@H](C2)[C@H]3C(=O)O)ccc1C(=O)NC1C2CC3CC(C2)CC1C3` (stereo partly drawn) [Example 66, (1S,5R)-3-[5-(2-adamantylcarbamoyl)-6-propylsulfanylpyridin-2-yl]-3-azabicyclo[3.1.0]hexane-6-carboxylic acid], the inhibition at 30 µM is 89%.

As for `CCCSc1nc(N2CC[C@H](C(=O)O)C2)ccc1C(=O)NC1C2CC3CC(C2)CC1C3` (stereo partly drawn) [Example 67, (3S)-1-[5-(2-adamantylcarbamoyl)-6-propylsulfanyl-pyridin-2-yl]pyrrolidine-3-carboxylic acid], the inhibition at 30 µM came out at 88%.

For `O=C(O)CO[C@H]1CCN(c2ccc(C(=O)NC3C4CC5CC(C4)CC3C5)c(SC3CCCC3)n2)C1` (stereo partly drawn) [Example 69, 2-[(3S)-1-[5-(2-adamantylcarbamoyl)-6-cyclopentylsulfanyl-pyridin-2-yl]pyrrolidin-3-yl]oxyacetic acid], the inhibition at 30 µM was 91%.

On to `O=C(O)CO[C@@H]1CCN(c2ccc(C(=O)NC3C4CC5CC(C4)CC3C5)c(SC3CCCC3)n2)C1` (stereo partly drawn) [Example 70, 2-[(3R)-1-[5-(2-adamantylcarbamoyl)-6-cyclopentylsulfanyl-pyridin-2-yl]pyrrolidin-3-yl]oxyacetic acid], for which the inhibition at 30 µM was determined as 95%.

On to `O=C(O)CO[C@H]1CCN(c2ccc(C(=O)NC3C4CC5CC(C4)CC3C5)c(SC3CCCCC3)n2)C1` (stereo partly drawn) [Example 71, 2-[(3S)-l-[5-(2-adamantylcarbamoyl)-6-cyclohexylsulfanyl-pyridin-2-yl]pyrrolidin-3-yl]oxyacetic acid], for which the inhibition at 30 µM was determined as 92%.

In the case of `O=C(O)CO[C@@H]1CCN(c2ccc(C(=O)NC3C4CC5CC(C4)CC3C5)c(SC3CCCCC3)n2)C1` (stereo partly drawn) [Example 72, 2-[(3R)-1-[5-(2-adamantylcarbamoyl)-6-cyclohexylsulfanyl-pyridin-2-yl]pyrrolidin-3-yl]oxyacetic acid], the inhibition at 30 µM was 84%.

Turning to `CCSc1nc(N2CC[C@H](CC(=O)O)C2)ccc1C(=O)NC1C2CC3CC(C2)CC1C3` (stereo partly drawn) [Example 73, 2-[(3R)-1-[5-(2-adamantylcarbamoyl)-6-ethylsulfanyl-pyridin-2-yl]pyrrolidin-3-yl]acetic acid], the inhibition at 30 µM was 92%.

As for `CSc1nc(N2CC[C@H](CC(=O)O)C2)ccc1C(=O)NC1C2CC3CC(C2)CC1C3` (stereo partly drawn) [Example 76, 2-[(3R)-1-[5-(2-adamantylcarbamoyl)-6-methylsulfanyl-pyridin-2-yl]pyrrolidin-3-yl]acetic acid], the inhibition at 30 µM came out at 87%.

Consider `CSc1nc(N2CC[C@@H](C(=O)O)C2)ccc1C(=O)NC1C2CC3CC(C2)CC1C3` (stereo partly drawn) [Example 77, (3R)-1-[5-(2-adamantylcarbamoyl)-6-methylsulfanyl-pyridin-2-yl]pyrrolidine-3-carboxylic acid], for which the inhibition at 30 µM came to 99%.

With `CCCSc1nc(N2CC[C@@H](CC(=O)O)C2)ccc1C(=O)NC1C2CC3CC1CC(O)(C3)C2` (stereo partly drawn) [Example 79, 2-[(3S)-1-[5-[((2r,5s)-5-hydroxy-2-adamantyl)carbamoyl]-6-propylsulfanyl-pyridin-2-yl]pyrrolidin-3-yl]acetic acid], the inhibition at 30 µM came out at 90%.

With `CCCSc1nc(NCC2CCC(C(=O)O)CC2)ccc1C(=O)N[C@H]1C2CC3CC1C[C@](O)(C3)C2` (stereo partly drawn) [Example 80, 4-[[[5-[((2r,5s)-5-hydroxy-2-adamantyl)carbamoyl]-6-propylsulfanyl-pyridin-2-yl]amino]methyl]cyclohexane-1-carboxylic acid], the inhibition at 30 µM was found to be 94%.

Take `CCCSc1nc(N2CCC[C@@H](CC(=O)O)C2)ccc1C(=O)N[C@H]1C2CC3CC1C[C@@](O)(C3)C2` [Example 83]: the inhibition at 30 µM is 87%.

Regarding `CCCSc1nc(N2CCC(C(=O)O)CC2)ccc1C(=O)N[C@H]1C2CC3CC1C[C@@](O)(C3)C2` [Example 84, 1-[5-[[(2r,5s)-5-hydroxy-2-adamantyl]carbamoyl]-6-propylsulfanyl-pyridin-2-yl]piperidine-4-carboxylic acid], the inhibition at 30 µM was 101%.

On to `CCCSc1nc(N2CCC[C@H](CC(=O)O)C2)ccc1C(=O)N[C@H]1C2CC3CC1C[C@@](O)(C3)C2` [Example 85, 2-[(3R)-1-[5-[[(2r,5s)-5-hydroxy-2-adamantyl]carbamoyl)-6-propylsulfanyl-pyridin-2-yl]-3-piperidyl]acetic acid], for which the inhibition at 30 µM was 89%.

Take `CCCSc1nc(N2CCC(CC(=O)O)CC2)ccc1C(=O)N[C@H]1C2CC3CC1C[C@@](O)(C3)C2` [Example 86, 2-[1-[5-[[(2r,5s)-5-hydroxy-2-adamantyl]carbamoyl]-6-propylsulfanyl-pyridin-2-yl]-4-piperidyl]acetic acid]: the inhibition at 30 µM was found to be 90%.

Consider `CCCSc1nc(N2CCC(C)(C(=O)O)CC2)ccc1C(=O)N[C@H]1C2CC3CC1C[C@@](O)(C3)C2` [Example 88, 1-[5-[[(2r,5s)-5-hydroxy-2-adamantyl]carbamoyl]-6-propylsulfanyl-pyridin-2-yl]-4-methyl-piperidine-4-carboxylic acid], for which the inhibition at 30 µM came to 89%.

Consider `CCCSc1nc(N2CCC(C(=O)O)C2)ccc1C(=O)N[C@H]1C2CC3CC1C[C@@](O)(C3)C2` (stereo partly drawn) [Example 89, 1-[5-[[(2r,5s)-5-hydroxy-2-adamantyl]carbamoyl]-6-propylsulfanyl-pyridin-2-yl]pyrrolidine-3-carboxylic acid], for which the inhibition at 30 µM is 85%.

Consider `CCCSc1nc(N2CC[C@H](CC(=O)O)C2)ccc1C(=O)N[C@H]1C2CC3CC1C[C@@](O)(C3)C2` [Example 90, 2-[(3R)-1-[5-[[(2r,5s)-5-hydroxy-2-adamantyl]carbamoyl]-6-propylsulfanyl-pyridin-2-yl]pyrrolidin-3-yl]acetic acid], for which the inhibition at 30 µM stood at 88%.

By inhibition is commonly meant the relative decrease from the control value, in per cent.

Source of the values: patent publication US8673938B2, “Chemical compounds” (priority 2006, dated 2014).
